Each structure is given as a SMILES string. Some results are limits rather than exact numbers.

Data set [1] addresses T1, Protein-glutamine gamma-glutamyltransferase K (Homo sapiens, UniProt P22735).
T1 sequence (P22735 whole entry): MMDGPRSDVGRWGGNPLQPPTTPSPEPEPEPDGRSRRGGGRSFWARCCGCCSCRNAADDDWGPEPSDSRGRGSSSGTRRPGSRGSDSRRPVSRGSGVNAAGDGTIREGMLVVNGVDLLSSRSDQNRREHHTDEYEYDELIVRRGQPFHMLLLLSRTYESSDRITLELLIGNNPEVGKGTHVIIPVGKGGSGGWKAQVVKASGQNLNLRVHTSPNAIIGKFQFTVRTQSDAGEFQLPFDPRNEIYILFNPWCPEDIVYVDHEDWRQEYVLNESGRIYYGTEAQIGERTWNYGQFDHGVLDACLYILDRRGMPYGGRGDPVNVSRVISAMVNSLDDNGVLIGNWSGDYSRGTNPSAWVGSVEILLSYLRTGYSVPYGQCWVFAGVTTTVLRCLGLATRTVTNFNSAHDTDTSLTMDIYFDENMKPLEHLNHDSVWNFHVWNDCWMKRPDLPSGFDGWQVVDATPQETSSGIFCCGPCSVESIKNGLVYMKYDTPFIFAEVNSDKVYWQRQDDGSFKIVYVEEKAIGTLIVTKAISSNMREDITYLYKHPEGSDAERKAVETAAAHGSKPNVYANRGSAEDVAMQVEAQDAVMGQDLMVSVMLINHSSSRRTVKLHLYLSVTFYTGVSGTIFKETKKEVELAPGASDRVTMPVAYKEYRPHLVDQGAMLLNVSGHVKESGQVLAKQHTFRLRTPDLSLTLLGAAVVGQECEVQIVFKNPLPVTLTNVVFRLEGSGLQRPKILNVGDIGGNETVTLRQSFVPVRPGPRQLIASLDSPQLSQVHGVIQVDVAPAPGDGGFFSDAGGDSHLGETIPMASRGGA
Nature of the data set: Inhibition of human TGM1.

The target in data set [2] is T2, Coagulation factor XIII A chain (Homo sapiens, UniProt P00488).
T2 sequence (P00488 whole entry): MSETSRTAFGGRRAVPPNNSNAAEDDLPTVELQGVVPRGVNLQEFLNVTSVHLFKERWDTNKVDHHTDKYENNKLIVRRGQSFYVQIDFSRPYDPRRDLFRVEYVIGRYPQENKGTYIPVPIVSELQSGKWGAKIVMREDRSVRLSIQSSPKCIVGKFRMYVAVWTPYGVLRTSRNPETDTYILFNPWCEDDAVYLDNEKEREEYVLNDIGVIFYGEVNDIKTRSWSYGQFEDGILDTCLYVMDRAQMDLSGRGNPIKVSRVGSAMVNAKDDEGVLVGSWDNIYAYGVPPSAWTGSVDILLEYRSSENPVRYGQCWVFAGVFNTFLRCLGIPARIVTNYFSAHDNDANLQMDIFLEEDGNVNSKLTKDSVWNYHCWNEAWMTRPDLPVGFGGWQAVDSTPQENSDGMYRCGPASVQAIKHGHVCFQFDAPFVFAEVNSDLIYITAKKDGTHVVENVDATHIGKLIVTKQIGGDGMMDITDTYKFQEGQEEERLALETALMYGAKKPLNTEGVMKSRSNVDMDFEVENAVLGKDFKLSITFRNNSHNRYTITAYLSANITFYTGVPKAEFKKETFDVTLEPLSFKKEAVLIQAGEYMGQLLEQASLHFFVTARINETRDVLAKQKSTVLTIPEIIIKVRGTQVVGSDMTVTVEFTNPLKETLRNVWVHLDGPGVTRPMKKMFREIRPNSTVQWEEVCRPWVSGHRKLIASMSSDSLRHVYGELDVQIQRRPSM
Nature of the data set: Inhibition of human factor-13A.

Data set [3] in a line: Half life in human plasma at 1 uM. The format is ADME, cell-free.
The target of data set [4] is T3, Protein-glutamine gamma-glutamyltransferase 6 (Homo sapiens, UniProt O95932).
T3 sequence (O95932 whole entry): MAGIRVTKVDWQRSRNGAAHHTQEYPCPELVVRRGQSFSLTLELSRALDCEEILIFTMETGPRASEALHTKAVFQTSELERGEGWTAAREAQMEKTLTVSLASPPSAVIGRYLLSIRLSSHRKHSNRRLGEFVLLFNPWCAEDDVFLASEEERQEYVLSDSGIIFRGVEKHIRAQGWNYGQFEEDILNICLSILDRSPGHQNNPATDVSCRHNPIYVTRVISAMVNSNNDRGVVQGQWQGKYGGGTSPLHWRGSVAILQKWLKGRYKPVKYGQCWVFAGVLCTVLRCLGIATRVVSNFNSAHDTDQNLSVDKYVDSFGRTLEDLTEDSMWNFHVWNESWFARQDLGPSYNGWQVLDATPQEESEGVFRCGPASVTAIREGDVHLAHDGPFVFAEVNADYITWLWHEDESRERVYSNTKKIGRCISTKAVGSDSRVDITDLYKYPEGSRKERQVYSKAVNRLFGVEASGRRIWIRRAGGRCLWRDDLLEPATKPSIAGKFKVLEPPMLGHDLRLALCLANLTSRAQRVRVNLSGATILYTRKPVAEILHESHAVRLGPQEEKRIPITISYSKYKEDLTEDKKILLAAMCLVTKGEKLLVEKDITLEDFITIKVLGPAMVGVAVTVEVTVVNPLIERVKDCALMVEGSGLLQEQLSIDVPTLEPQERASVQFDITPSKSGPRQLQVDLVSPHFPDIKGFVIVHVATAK
Nature of the data set: Inhibition of human TGM6.

The nature of data set [5]: Chemical stability of the compound in phosphate buffer at pH 7.4 assessed as GSH adduct formation after 120 hrs. Conditions: pH 7.4, 120 h. The format is physicochemical.
Data set [6] concerns the target T4, Protein-glutamine gamma-glutamyltransferase E (Homo sapiens, UniProt Q08188).
T4 sequence (Q08188 whole entry): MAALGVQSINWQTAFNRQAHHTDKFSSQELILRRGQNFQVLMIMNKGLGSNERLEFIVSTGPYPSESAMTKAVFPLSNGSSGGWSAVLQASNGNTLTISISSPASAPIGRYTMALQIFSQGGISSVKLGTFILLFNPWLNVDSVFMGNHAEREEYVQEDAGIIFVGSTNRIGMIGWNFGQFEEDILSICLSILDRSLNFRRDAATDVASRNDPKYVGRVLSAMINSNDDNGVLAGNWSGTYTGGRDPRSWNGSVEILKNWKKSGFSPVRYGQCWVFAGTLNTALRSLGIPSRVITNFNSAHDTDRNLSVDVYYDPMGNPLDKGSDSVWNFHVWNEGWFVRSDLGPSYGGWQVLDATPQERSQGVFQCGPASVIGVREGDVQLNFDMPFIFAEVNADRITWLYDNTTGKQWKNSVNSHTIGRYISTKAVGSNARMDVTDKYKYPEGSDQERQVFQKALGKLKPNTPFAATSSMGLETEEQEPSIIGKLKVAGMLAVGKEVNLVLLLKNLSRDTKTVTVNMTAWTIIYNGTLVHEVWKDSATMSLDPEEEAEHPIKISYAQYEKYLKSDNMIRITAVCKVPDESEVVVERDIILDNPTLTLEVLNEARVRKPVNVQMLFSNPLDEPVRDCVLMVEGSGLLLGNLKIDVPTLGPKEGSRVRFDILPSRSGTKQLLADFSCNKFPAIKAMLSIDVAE
Nature of the data set: Inhibition of human TGM3.

The nature of data set [7]: Half life in mouse plasma at 1 uM. The format is ADME, cell-free.
Data set [8] has as its target T5, Protein-glutamine gamma-glutamyltransferase (Homo sapiens, UniProt P21980).
T5 sequence (P21980 whole entry): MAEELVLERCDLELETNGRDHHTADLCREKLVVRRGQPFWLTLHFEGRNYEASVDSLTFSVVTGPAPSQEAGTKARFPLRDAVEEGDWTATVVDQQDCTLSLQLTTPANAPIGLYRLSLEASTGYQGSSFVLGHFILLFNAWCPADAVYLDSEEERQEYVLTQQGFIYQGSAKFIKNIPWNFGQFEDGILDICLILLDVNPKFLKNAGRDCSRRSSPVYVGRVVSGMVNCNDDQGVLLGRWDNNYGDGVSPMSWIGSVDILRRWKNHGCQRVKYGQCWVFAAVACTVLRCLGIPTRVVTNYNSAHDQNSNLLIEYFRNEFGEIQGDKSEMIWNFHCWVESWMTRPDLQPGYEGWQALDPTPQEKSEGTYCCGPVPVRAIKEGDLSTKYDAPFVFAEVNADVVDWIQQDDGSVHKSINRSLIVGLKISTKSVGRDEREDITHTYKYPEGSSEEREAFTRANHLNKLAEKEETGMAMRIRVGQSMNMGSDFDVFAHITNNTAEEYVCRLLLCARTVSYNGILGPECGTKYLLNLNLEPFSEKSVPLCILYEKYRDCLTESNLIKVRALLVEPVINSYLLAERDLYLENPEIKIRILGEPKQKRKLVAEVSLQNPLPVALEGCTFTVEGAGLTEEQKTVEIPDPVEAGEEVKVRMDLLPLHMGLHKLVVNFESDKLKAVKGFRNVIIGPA
Nature of the data set: Inhibition of human TGM2.

Data set [9] is described as follows: Kinetic solubility of the compound in phosphate buffered saline at pH 7.4. The class given is physicochemical. Conditions: read-out: Kinetic_solubility.
The nature of data set [10]: Intrinsic clearance in mouse liver microsomes at 1 uM. The class given is ADME, Microsome. The note with it: read-out: CLH.
Data set [11] in a line: Efflux ratio of permeability in wild type MDCK cells. The note with it: dog. The class given is ADME, cell-based, Canis lupus familiaris.
Data set [12] is described as follows: Apparent permeability from apical to basolateral side of wild type MDCK cells. The class given is ADME, cell-based, Canis lupus familiaris. Conditions: dog.
The nature of data set [13]: Intrinsic clearance in human liver microsomes at 1 uM. The class given is ADME, Microsome. The note with it: read-out: CLH. (In general: Liver microsomes are vesicles of endoplasmic reticulum, rich in cytochrome P450 enzymes.)
Data set [14] has as its target T6, Protein-glutamine gamma-glutamyltransferase 2 (Mus musculus, UniProt P21981).
T6 sequence (P21981 whole entry): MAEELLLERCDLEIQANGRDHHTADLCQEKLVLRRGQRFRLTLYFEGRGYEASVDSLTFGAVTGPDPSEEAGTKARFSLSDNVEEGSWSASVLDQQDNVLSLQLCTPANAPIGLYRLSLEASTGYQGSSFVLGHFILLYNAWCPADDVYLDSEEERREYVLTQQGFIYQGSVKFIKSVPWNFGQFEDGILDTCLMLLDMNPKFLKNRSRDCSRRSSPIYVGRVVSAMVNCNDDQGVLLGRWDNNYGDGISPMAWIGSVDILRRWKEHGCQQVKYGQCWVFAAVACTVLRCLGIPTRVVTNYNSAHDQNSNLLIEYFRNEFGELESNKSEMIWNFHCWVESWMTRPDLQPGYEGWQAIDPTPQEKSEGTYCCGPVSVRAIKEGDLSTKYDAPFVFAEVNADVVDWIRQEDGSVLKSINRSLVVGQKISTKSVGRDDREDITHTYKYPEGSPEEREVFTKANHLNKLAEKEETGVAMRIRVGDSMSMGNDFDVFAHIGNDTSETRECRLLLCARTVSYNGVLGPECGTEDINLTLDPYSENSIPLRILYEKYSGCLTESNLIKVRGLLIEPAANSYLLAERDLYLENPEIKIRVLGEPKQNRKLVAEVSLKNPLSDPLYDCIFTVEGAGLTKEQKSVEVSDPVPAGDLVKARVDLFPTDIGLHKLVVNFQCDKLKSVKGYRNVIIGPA
Nature of the data set: Inhibition of mouse TGM2.

In the case of `C=CC(=O)NC1CCN(S(=O)(=O)c2ccc(NC(=O)OCc3ccccc3)cc2)CC1`, the IC50 (commonly the concentration needed to halve the response being measured) in data set [1] was 910 nM; in data set [2], 3600 nM; in data set [4], 8900 nM; in [6], over 80000 nM; in data set [8], 280 nM. Further, the half-life (in general, how long it takes for the measured level to halve) at 1 µM in [3] was over 6 h; in data set [7] it was 4 h. Also, the Stability entry in data set [5] is on record as “Stable”.
As for `C=CC(=O)NC1CCN(S(=O)(=O)c2ccc(C(=O)NCCc3ccccc3)cc2)CC1`, in [9], the solubility kinetic was under 10 µg/mL. In addition, the microsomal CLint at 1 µM in data set [10] amounted to 99 µL/min/mg; in [13], 595 µL/min/mg. For the same compound, the efflux ratio (as a rule, a quotient of directional permeabilities that is used to spot active efflux) in data set [11] is 44. The Papp A→B (as a rule, the apparent permeability from the apical to the basolateral side of a cell layer) in data set [12] is 8.3 ×10⁻⁶ cm/s. In addition, the half-life at 1 µM in data set [3] and in data set [7] was over 6 h each time. This compound also registered an IC50 in data set [8] of 180 nM.
On to `C=CC(=O)NC1CCN(S(=O)(=O)c2ccc(C(=O)NCCc3ccc(OC)cc3)cc2)CC1`, for which the IC50 in data set [1] was determined as 1200 nM; in data set [14], 55 nM; in data set [2], 6400 nM; in data set [4] it was 34000 nM. The half-life at 1 µM in [3] and in data set [7] was over 6 h throughout.

These data come from ChEMBL document CHEMBL2150866, “Irreversible 4-Aminopiperidine Transglutaminase 2 Inhibitors for Huntington's Disease” (ACS Med Chem Lett, 2012).
